# Laboratory results from patent US10597388B2, “Pyridazinone herbicides” (FMC CORPORATION, priority 2014, dated 2020).
# Legend:
# Format in all cases: in vivo
# rice (Oryza sativa) = assay: Test B flooded paddy test; settings: 250 g ai/ha, Flood; visual rating on scale of 0 to 100 where 0 is no effect and 100 is complete control; 13 to 15 d after treatment
# Outline: (§1)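 Plants grown to the 2-leaf stage. At treatment, pots were flooded to 3 cm above the soil, compound was applied directly to the paddy water, and that depth was held throughout. After 13 to 15 d in the greenhouse, response was rated visually against controls on a 0 (no effect) to 100 (complete control) scale.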
# [1] = test system: ducksalad (Heteranthera limosa); assay: Test B flooded paddy test; settings: 250 g ai/ha, Flood; visual rating on scale of 0 to 100 where 0 is no effect and 100 is complete control; 13 to 15 d after treatment
# Outline: as §1
# [2] = test system: sedge, umbrella (small-flower umbrella sedge, Cyperus difformis); assay: Test B flooded paddy test; settings: 250 g ai/ha, Flood; visual rating on scale of 0 to 100 where 0 is no effect and 100 is complete control; 13 to 15 d after treatment
# Outline: as §1
# [3] = test system: barnyardgrass (Echinochloa crus-galli); assay: Test B flooded paddy test; settings: 250 g ai/ha, Flood; visual rating on scale of 0 to 100 where 0 is no effect and 100 is complete control; 13 to 15 d after treatment
# Outline: as §1
# [4] = test system: wheat (Triticum aestivum); assay: Test A greenhouse herbicide test, pre- and postemergence; settings: Postemergence
# Outline: (§2)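 Seeds in loam–sand blend received a preemergence directed soil spray; plants at 2–10 cm, one- to two-leaf stage, received postemergence sprays. Compounds in a non-phytotoxic solvent with surfactant. After about 10 d in a greenhouse, injury rated visually versus untreated controls on a 0–100 scale (100 = complete control).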
# [5] = test system: ryegrass, Italian (Italian ryegrass, Lolium multiflorum); assay: as above
# Outline: as §2
# corn (Zea mays) = assay: as above; settings: Postemergence
# Outline: as §2
# [6] = test system: pigweed (Amaranthus retroflexus); assay: as above
# Outline: as §2
# [7] = test system: foxtail, giant (giant foxtail, Setaria faberii); assay: as above
# Outline: as §2
# [8] = test system: ragweed (common ragweed, Ambrosia elatior); assay: as above
# Outline: as §2
# kochia (Kochia scoparia) = assay: as above
# Outline: as §2
# [9] = test system: barnyardgrass (Echinochloa crus-galli); assay: as above
# Outline: as §2
# [10] = test system: galium (catchweed bedstraw, Galium aparine); assay: Test A greenhouse herbicide test, postemergence
# Outline: (§3)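 Visual injury score, 0 (no effect) to 100 (complete control), versus untreated controls roughly 10 d after postemergence spray; plants at one- to two-leaf stage, 2 to 10 cm tall, in loam soil and sand, kept in greenhouse.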
# [11] = test system: blackgrass (Alopecurus myosuroides); assay: Test A greenhouse herbicide test, postemergence
# Outline: as §3
# [12] = 125 g ai/ha, 0 to 100 scale, 0 no effect, 100 complete control
# [13] = 500 g ai/ha, visual rating after approx. 10 d, 0 to 100 scale (0 no effect, 100 complete control)
# [14] = Postemergence, 125 g ai/ha, 0 to 100 scale, 0 no effect, 100 complete control
# [15] = Postemergence, 500 g ai/ha, visual rating after approx. 10 d, 0 to 100 scale (0 no effect, 100 complete control)
# [16] = Preemergence, 125 g ai/ha, visual injury rating, 0 to 100 scale (0 no effect, 100 complete control), approx. 10 d
# [17] = Preemergence, 500 g ai/ha, 0 to 100 scale where 0 is no effect and 100 is complete control
SMILES,"Plant response rating, Rice (rice (Oryza sativa))","Plant response rating, Ducksalad [1]","Plant response rating, Sedge, Umbrella [2]","Plant response rating, Barnyardgrass [3]","Plant response rating, Wheat [4, 12]","Plant response rating, Wheat [4, 13]","Plant response rating, Ryegrass, Italian [5, 14]","Plant response rating, Ryegrass, Italian [5, 15]","Plant response rating, Ryegrass, Italian [5, 16]","Plant response rating, Ryegrass, Italian [5, 17]","Plant response rating, Corn (corn (Zea mays); [12])","Plant response rating, Corn (corn (Zea mays); [13])","Plant response rating, Pigweed [6, 14]","Plant response rating, Pigweed [6, 15]","Plant response rating, Pigweed [6, 16]","Plant response rating, Pigweed [6, 17]","Plant response rating, Foxtail, Giant [7, 14]","Plant response rating, Foxtail, Giant [7, 15]","Plant response rating, Foxtail, Giant [7, 16]","Plant response rating, Foxtail, Giant [7, 17]",further results
CCOC(=O)Oc1c(C)nn(C)c(=O)c1-c1c([N+](=O)[O-])ccc2ccccc12 [Compound 166],0,0,0,0,0,20,40,90,40,90,20,20,40,80,80,90,10,40,10,30,"Plant response rating, Ragweed [8, 14]: 30; Plant response rating, Ragweed [8, 15]: 70; Plant response rating, Ragweed [8, 16]: 70; Plant response rating, Ragweed [8, 17]: 90; Plant response rating, Kochia (kochia (Kochia scoparia); [14]): 50; Plant response rating, Kochia (kochia (Kochia scoparia); [15]): 70; Plant response rating, Kochia (kochia (Kochia scoparia); [16]): 30; Plant response rating, Kochia (kochia (Kochia scoparia); [17]): 90; Plant response rating, Barnyardgrass [9, 14]: 10; Plant response rating, Barnyardgrass [9, 15]: 20; Plant response rating, Barnyardgrass [9, 16]: 10; Plant response rating, Barnyardgrass [9, 17]: 10; Plant response rating, Galium [10, 12]: 70; Plant response rating, Galium [10, 13]: 90; Plant response rating, Blackgrass [11, 12]: 10; Plant response rating, Blackgrass [11, 13]: 30"
Cc1nn(C)c(=O)c(-c2c([N+](=O)[O-])ccc3ccccc23)c1OC(=O)C1CC1 [Compound 167],0,0,0,0,0,0,70,80,80,100,0,20,70,80,100,100,20,40,10,20,"Plant response rating, Ragweed [8, 14]: 60; Plant response rating, Ragweed [8, 15]: 70; Plant response rating, Ragweed [8, 16]: 70; Plant response rating, Ragweed [8, 17]: 80; Plant response rating, Kochia (kochia (Kochia scoparia); [14]): 50; Plant response rating, Kochia (kochia (Kochia scoparia); [15]): 70; Plant response rating, Kochia (kochia (Kochia scoparia); [16]): 60; Plant response rating, Kochia (kochia (Kochia scoparia); [17]): 100; Plant response rating, Barnyardgrass [9, 14]: 20; Plant response rating, Barnyardgrass [9, 15]: 20; Plant response rating, Barnyardgrass [9, 16]: 10; Plant response rating, Barnyardgrass [9, 17]: 20; Plant response rating, Galium [10, 12]: 70; Plant response rating, Galium [10, 13]: 90; Plant response rating, Blackgrass [11, 12]: 20; Plant response rating, Blackgrass [11, 13]: 40"
Cc1nn(Cc2ccccc2)c(=O)c(-c2cccc3ccccc23)c1O [Compound 168],0,40,0,0,0,20,60,60,0,40,0,20,0,40,0,0,30,40,0,40,"Plant response rating, Ragweed [8, 14]: 0; Plant response rating, Ragweed [8, 15]: 0; Plant response rating, Ragweed [8, 16]: 0; Plant response rating, Ragweed [8, 17]: 0; Plant response rating, Kochia (kochia (Kochia scoparia); [14]): 20; Plant response rating, Kochia (kochia (Kochia scoparia); [15]): 20; Plant response rating, Kochia (kochia (Kochia scoparia); [16]): 0; Plant response rating, Kochia (kochia (Kochia scoparia); [17]): 0; Plant response rating, Barnyardgrass [9, 14]: 0; Plant response rating, Barnyardgrass [9, 15]: 40; Plant response rating, Barnyardgrass [9, 16]: 0; Plant response rating, Barnyardgrass [9, 17]: 20; Plant response rating, Galium [10, 12]: 0; Plant response rating, Galium [10, 13]: 30; Plant response rating, Blackgrass [11, 12]: 20; Plant response rating, Blackgrass [11, 13]: 30"
Cc1n[nH]c(=O)c(-c2cccc3ccccc23)c1OCC(F)F [Compound 173],0,0,0,0,0,0,0,0,0,0,0,0,0,0,0,0,0,0,0,0,"Plant response rating, Ragweed [8, 14]: 0; Plant response rating, Ragweed [8, 15]: 0; Plant response rating, Ragweed [8, 16]: 0; Plant response rating, Ragweed [8, 17]: 0; Plant response rating, Kochia (kochia (Kochia scoparia); [14]): 0; Plant response rating, Kochia (kochia (Kochia scoparia); [15]): 0; Plant response rating, Kochia (kochia (Kochia scoparia); [16]): 0; Plant response rating, Kochia (kochia (Kochia scoparia); [17]): 0; Plant response rating, Barnyardgrass [9, 14]: 0; Plant response rating, Barnyardgrass [9, 15]: 0; Plant response rating, Barnyardgrass [9, 16]: 0; Plant response rating, Barnyardgrass [9, 17]: 0; Plant response rating, Galium [10, 12]: 0; Plant response rating, Galium [10, 13]: 0; Plant response rating, Blackgrass [11, 12]: 0; Plant response rating, Blackgrass [11, 13]: 0"
Cc1cc(C)c2sc(C)c(-c3c(OC(=O)N4CCOCC4)c(C)nn(C)c3=O)c2c1 [Compound 174],0,0,0,0,0,0,10,40,0,0,0,0,40,60,0,20,0,10,0,10,"Plant response rating, Ragweed [8, 14]: 20; Plant response rating, Ragweed [8, 15]: 20; Plant response rating, Ragweed [8, 16]: 0; Plant response rating, Ragweed [8, 17]: 0; Plant response rating, Kochia (kochia (Kochia scoparia); [14]): 0; Plant response rating, Kochia (kochia (Kochia scoparia); [15]): 0; Plant response rating, Kochia (kochia (Kochia scoparia); [16]): 0; Plant response rating, Kochia (kochia (Kochia scoparia); [17]): 0; Plant response rating, Barnyardgrass [9, 14]: 0; Plant response rating, Barnyardgrass [9, 15]: 10; Plant response rating, Barnyardgrass [9, 16]: 0; Plant response rating, Barnyardgrass [9, 17]: 0; Plant response rating, Galium [10, 12]: 30; Plant response rating, Galium [10, 13]: 80; Plant response rating, Blackgrass [11, 12]: 0; Plant response rating, Blackgrass [11, 13]: 0"
